What is called IC50 is the midpoint of a concentration-inhibition curve. A word on the inhibition: it is the change of the read-out against control, counted positive when it falls.

In one assay the target is Calcium/calmodulin-dependent protein kinase type II subunit alpha (Rattus norvegicus, UniProt P11275). The assay is described as follows: Displacement of [3H]NCS-382 (16 nM) from GHB receptor of rat cerebrocortical membranes. The format is cell membranes, Membrane.
Sequence of Calcium/calmodulin-dependent protein kinase type II subunit alpha (P11275 whole entry): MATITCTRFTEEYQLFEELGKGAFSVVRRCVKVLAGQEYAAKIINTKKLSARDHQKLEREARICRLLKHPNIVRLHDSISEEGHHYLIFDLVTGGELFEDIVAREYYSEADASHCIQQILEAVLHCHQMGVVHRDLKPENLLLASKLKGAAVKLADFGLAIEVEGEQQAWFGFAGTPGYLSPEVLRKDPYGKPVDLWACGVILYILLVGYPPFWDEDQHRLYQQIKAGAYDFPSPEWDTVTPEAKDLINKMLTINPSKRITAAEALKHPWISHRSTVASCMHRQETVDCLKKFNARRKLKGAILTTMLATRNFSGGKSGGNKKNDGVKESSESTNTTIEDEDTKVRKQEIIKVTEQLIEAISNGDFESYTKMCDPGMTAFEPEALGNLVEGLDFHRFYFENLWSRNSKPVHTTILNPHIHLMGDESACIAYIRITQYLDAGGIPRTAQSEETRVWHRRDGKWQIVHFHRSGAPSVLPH
Turning to `O=C(O)Cc1cccc(OCCCc2ccccc2)c1`, the IC50 came to 4.5 µM.
Turning to `O=C(O)Cc1cccc(OCCc2ccccc2)c1`, the IC50 came out at 8.3 µM.
The same measure, in the same setting: under `O=C(O)Cc1cccc(Oc2ccccc2)c1` stands 16.3 µM; under `O=C(O)Cc1cccc(O)c1` [3-Hydroxyphenylacetate], 12 µM; under `O=C(O)CCCOc1ccccc1`, 210 µM.
Still for that read-out and setting: the figure for `O=C(O)Cc1cccc(OCc2ccccc2)c1` is 46 µM.

A further assay concerns the target GABA B receptor (Rattus norvegicus) (UniProt Q9Z0U4+O88871). The assay is described as follows: Percent displacement of [3H]GABA (1 mM) from Gamma-aminobutyric acid B receptor of rat cerebellum. The assay is classed as tissue-based. Background: Displacement assays read how much labelled ligand stays bound in the presence of the test substance.
Take `O=C(O)Cc1cccc(OCCCc2ccccc2)c1`: the inhibition stood at 6%.
Same read-out and setting: the figure for `O=C(O)CCCO` is 41.1%.
The same measure, in the same setting: under `O=C(O)Cc1cccc(OCCc2ccccc2)c1` stands -1.2%; under `O=C(O)Cc1cccc(Oc2ccccc2)c1`, -5.5%.
Same read-out and setting: the figure for `O=C(O)Cc1cccc(O)c1` [3-Hydroxyphenylacetate] is 14%; for `O=C(O)CCCOc1ccccc1` it is 6.5%; for `O=C(O)Cc1cccc(OCc2ccccc2)c1` it is -4.7%.

A further assay concerns the target GABA-A receptor; anion channel (Rattus norvegicus) (UniProt O09028+P15431+P18506+P18508+P19969+P20236+P23574+P23576+P28471+P28473+P30191+P62813+P63079+P63138+Q91ZM7+Q9ES14). The assay is described as follows: Percent displacement of [3H]GABA (1 mM) from Gamma-aminobutyric acid A receptor of rat cerebral cortex. The assay is classed as tissue-based.
On to `O=C(O)Cc1cccc(OCCCc2ccccc2)c1`, for which the inhibition turned out to be 17.4%.
As for `O=C(O)CCCO`, the inhibition stood at 35.5%.
As for `O=C(O)Cc1cccc(OCCc2ccccc2)c1`, the inhibition is 15.1%.
On the same count and under the same terms, the figure for `O=C(O)Cc1cccc(Oc2ccccc2)c1` is 2.7%; for `O=C(O)Cc1cccc(O)c1` [3-Hydroxyphenylacetate] it is 44.2%; for `O=C(O)CCCOc1ccccc1` it is 6.3%.
Regarding `O=C(O)Cc1cccc(OCc2ccccc2)c1`, the inhibition came to 11%.

The record behind these values is ChEMBL document CHEMBL1139641 (Bioorg Med Chem Lett, 2005).
